Measured values: patent US4170647A, “Method for the control of Arizona hinshawii in poultry with an alkylated BM123γ-type antibiotic” (American Cyanamid Company, priority 1978, dated 1979)

System: Arizona hinshawii
Assay: In vitro activity against six strains of Arizona hinshawii (minimum inhibitory concentration, broth dilution)
Type: cell-based
Conditions: trypticase soy broth, 24 hours at 37° C.
Method: Serial, two-fold dilutions of drugs are prepared in trypticase soy broth (TSB). To each tube containing 5 ml of broth is added 0.1 ml of a 10^-3 dilution of bacterial inoculum (six strains of Arizona hinshawii, originally isolated from clinical cases of Arizonosis of turkeys), adjusted prior to dilution to 44% transmission at 645 mμ. An inoculated broth, containing no drug is included as growth control for each strain tested. The minimum inhibitory conentration (MIC) is read as the highest dilution of drug showing no visble growth after 24 hours incubation at 37° C.

Measured: Minimum Inhibitory Concentration

Gentamicin
2 µg/mL: Isolate Number 1 | Isolate Number 2 | Isolate Number 3 | Isolate Number 4 | Isolate Number 5 | Isolate Number 6
